Experiments:
COLO 205 cells [1] = assay: Mitochondrial membrane potential by DiOC6 flow cytometry; format: cell-based, human; conditions: COLO 205, 50 μM, 15 min; shifted from 224
Method: (§1) For mitochondrial membrane potential and ROS production, COLO 205 cells were treated as described under Example III for 15 min, and then DiOC6 [3,3′-dihexyloxacarbocyanine iodide] (40 nM) or DCFHDA [2′,7′-dichlorodihydrofluorescein diacetate] (20 μM) was added to the medium for a further 30 min at 37° C. After washing with PBS, the fluorescence intensity was determined by FAC Scan cytometry. The DiOC6 fluorescence intensity shifted to the left from 224 to 117 and 75 in pterostilbene and 3-HPT induced apoptotic COLO 205 cells, respectively. […] The role of ROS in the induction of apoptosis is well recognized. […] The imbalance of ROS concentrations could play an important role as an early mediator in 3-HPT induced apoptosis.

[2] = tested on: PC-3 (Human prostate cancer cell line); assay: MTT cell viability assay, PC-3; format: cell-based; conditions: Homo sapiens; PC-3, MTT
Method: (§2) Cell viability was assayed by 3(4,5-dimethylthiazol-2-yl)-2,5-diphenyltetrazolium bromide (MTT). Briefly. COLO 205, HCT116 and HT29 cells were plated at a density of 2×10^2 cells/mL into 96 well plates. After overnight growth, cells were treated with a series of concentrations of pterostilbene or 3-hydroxypterostilbene for 24 h. The final concentrations of DMSO in the culture medium were <0.05%. At the end of treatment, 0.2% MTT was added and cells were incubated for a further 4 h. Cell viability was determined by scanning with an ELISA reader with a 570 nm filter.
The MTT reaction explained in Para 0040 was also used to assess the cell viability of human prostate cancer cells (PC-3) in the presence of pterostilbene and 3-hydroxypterostilbene. The results (FIG. 1) are represented in Table II.

HCT-116 cells = assay: MTT cell viability assay, HCT116; format: cell-based; conditions: Homo sapiens; HCT-116, MTT, 24 h
Method: (§3) The human colon cancer cell lines COLO 205, HCT116 and HT29 were purchased from the American Type Culture Collection (Rockville, Md.). Cell lines were grown in RPMI1640 supplemented with 10% heat inactivated fetal bovine serum (GIBCO BRL, Grand Island, N.Y.), 100 units/mL of penicillin, 100 μg/mL of streptomycin), 2 mM L-glutamine (GIBCO BRL, Grand Island, N.Y.), and were kept at 37° C. in a humidified 5% CO2 incubator. Pterostilbene and 3-HPT were dissolved in dimethyl sulfoxide (DMSO, as final concentration of 0.05%). Cells were treated with 0.05% DMSO as vehicle control.
as §2

COLO 205 cells [3] = assay: Flow cytometry analysis of subG1 cell population (PI staining); format: cell-based, human; conditions: 24 h
Method: For subG1 cell population analysis, COLO 205 cells (2×10^5 cells/mL) were cultured in 12 well and treatment with various concentrations of pterostilbene or 3-hydroxypterostilbene for 24 h. The cells were then harvested, washed with PBS, re-suspended in 200 μL of PBS, and fixed in 800 μL of iced 100% ethanol at […]. After being left to stand overnight, the cell pellets were collected by centrifugation, re-suspended in 1 mL of hypotonic buffer (0.5% Triton X100 in PBS and 0.5 μg/mL RNase) with PI (50 μg/mL) and incubated at 37° C. in the dark for 30 min. Fluorescence emitted from the PIDNA complex was quantitated after excitation of the fluorescent dye by FACScan cytometry (Becton Dickinson, San Jose, Calif.). […] The results indicated a higher apoptotic potential of 3-hydroxypterostilbene for COLO 205 cells.

[4] = tested on: COLO 205 xenograft tumors; assay: COLO 205 xenograft model; format: in vivo; conditions: 10 mg/kg/d i.p., 15 days, nude mice
Method: Male Balb/c nude mice at 3-4 weeks old (weighing 16-18 g) were obtained from the BioLASCO Experimental Animal Center (BioLASCO, Taipei, Taiwan). All animals were maintained in pathogen free sterile isolators and in a controlled atmosphere (25±1° C. at 50% relative humidity) and with a 12 h light-12 h dark cycle according to institutional guidelines. Animals were fed with standard AIN76 diet and all food, water, caging, and bedding were sterilized prior to use. Animals had free access to food and water at all times. Food cups were replenished with fresh diet every day. All animal experimental protocol used in this study was approved by Institutional Animal Care and Use Committee of the National Kaohsiung Marine University (IACUC, NKMU, #099AAA902, Validity dates: Jan. 1, 2009 Jul. 31, 2012). After 1 week of acclimation, colon cancer COLO 205 cells (5×10^6) in 0.2 mL PBS were injected subcutaneously between the scapulae of each nude mouse. After transplantation, tumor size was measured using calipers, and the tumor volume was estimated according to the following formula: tumor volume […]=L×W2/2, where L is the length and W is the width. Once tumors reached a mean size of […], mice were randomly divided into three groups (6 animals/group). Mice were i.p. injection with pterostilbene or 3-hydroxypterostilbene (10 mg/kg/d, respectively) for 15 days, while control animals were received injection of corn oil. The diet intake and body weight of each animal was monitored every day. The tumor volume was assessed and recorded every 5 days using caliper measurements. After 15 days, the mice were sacrificed by […] and the liver, kidneys, spleen and solid tumors were excised immediately and weighed. Average tumor volume and tumor weight of each group were represent the mean±standard deviation (SD). Average tumor volumes were recorded during the treatment and average tumor weights were measured at the end of experiment. Six samples were analyzed in each group, and values represent the mean±SD. *P<0.05 and **P<0.01, compared with control group. #P<0.05, compared with pterostilbene treated group. The tumor tissues were cut into several portion for western blot analysis or stored at −80° C. […] Furthermore, in mice receiving these treatment regimens, no gross signs of toxicity were observed during visible inspections of general appearance and microscopic examinations of individual organs. • 2.

COLO 205 cells [5] = assay: ROS production by DCFHDA flow cytometry; format: cell-based, human; conditions: COLO 205, 50 μM, 15 min; from 114
Method: as §1

HT-29 cells = assay: MTT cell viability assay, HT29; format: cell-based; conditions: Homo sapiens; HT-29, MTT, 24 h
Method: as §3, §2

COLO 205 cells [6] = assay: MTT cell viability assay, COLO 205; format: cell-based; conditions: Homo sapiens, COLO205, MTT, 24 h
Method: as §3, §2

COc1cc(/C=C/c2ccc(O)cc2)cc(OC)c1 [Pterostilbene, pterostilbene]
DiOC6 fluorescence intensity (mitochondrial membrane potential) (COLO 205 cells [1]): 117 | IC50 [2]: > 20 µM | IC50 (HCT-116 cells): 47.1 ± 0.6 µM | percentage of apoptotic COLO 205 cells (subG1) (COLO 205 cells [3]; 5 μM): 6.2% | percentage of apoptotic COLO 205 cells (subG1) (COLO 205 cells [3]; 10 μM): 8.4% | percentage of apoptotic COLO 205 cells (subG1) (COLO 205 cells [3]; 25 μM): 10.2% | percentage of apoptotic COLO 205 cells (subG1) (COLO 205 cells [3]; 50 μM): 14.8% | side effects or toxicity (body and organ weights, gross signs) [4]: no noticeable side effects or toxicity | mean DCFHDA fluorescence intensity (ROS) (COLO 205 cells [5]): 141 | IC50 (HT-29 cells): 80.6 ± 3.3 µM | IC50 (COLO 205 cells [6]): 33.4 ± 0.2 µM

Reference: US20160058712A1, “3-HYDROXYPTEROSTILBENE AND THERAPEUTIC APPLICATIONS THEREOF” (priority 2014, published 2016)
